Measurements reported in EP4389746A2, “P2X3 RECEPTOR ANTAGONISTS” (Recordati Industria Chimica E Farmaceutica SPA, priority 2022, dated 2024).

Tested on: Sprague-Dawley Rats
Test: Two bottle taste test in rats: dysgeusia effect of P2X3 antagonists
Assay type: in vivo
Settings: rats water fasted overnight; bottles presented 30 minutes after treatment for 15 minutes (Fig. 4)
Procedure: C57BL/6J mice, Hartley Guinea pigs and Sprague-Dawley Rats from Charles River Italy were used in the experiments. Animals were housed with free access to food and water and maintained on a forced 12 hr light-dark cycle at 22-24°C for at least one week before the experiments were carried out. The animals were handled according to internationally accepted principles for care of laboratory animals (Directive 2010/63/EU of the European Parliament and of the Council of 22 September 2010).
(Fig 3) "Two bottle taste test" in rats - Dysgeusia effect of P2X3 antagonists
Rats were water fasted overnight. The day of the experiment the animals were treated with tested compounds and 30 minutes later two bottles were presented for 15 minutes, the first one containing water and the second bottle containing Quinine, a substance showing a bitter taste. The volume of liquid drunk in 15 minutes from each bottle was recorded and expressed as percentage of preference (Fig.4). Statistical analysis was performed on absolute values (mean ± SEM) using one-way ANOVA and Tukey's test for multiple comparisons.

In the case of `COc1cc(C(C)C)c(Oc2cnc(N)nc2N)cc1S(N)(=O)=O` [Gefapixant, reference compound], the “preference between water and Quinine” value is reported as “showed altered taste function and poor preference between water and Quinine bottles”.
